Measurements as given in US20230389546A1, “ANTIMICROBIAL COMPOSITION” (The Procter & Gamble Company, priority 2022, published 2023).

Key:
[1] = test system: Gram Negative bacteria; assay: Surface Antimicrobial Kill Testing, normalized to triclosan internal standard, gram negative; assay type: cell-based, K. pneumonia (Kp) / P. aeruginosa (Pa); details: for antimicrobial benefit in words, gram-negative: Table 2B formulas
Experimental: (§1) Inoculum is prepared by streaking microorganism onto a Tryptic Soy Agar (TSA) plate and incubating for 24 h at 33° C. Plated bacteria is resuspended in saline until the transmittance percentage falls within the accepted range for ˜10^8 cfu/mL. For K. pneumonia (Kp) and P. aeruginosa (Pa), this is 31.00-33.00% T. For S. aureus (Sa) this is 23.00-25.00% T. A 10× concentration is made by spinning down the prepared inoculum, removing the supernatant saline from the bacterial pellet, then resuspending the pellet in 1/10th of the original volume of saline. The final inoculum is prepared with 5% of “soil” in the form of Fetal Bovine Serum (FBS). A 18×18 mm sterile glass coverslip is placed into an appropriate container (e.g., petri dish). 20 μL of prepared inoculum is added to the glass coverslip. Inoculum is then air-dried for 30 minutes in a 36° C. incubator. After drying, 40 μL of test sample is added on top of the dried inoculum. This is incubated at room temperature for the desired contact time. 5 mL of neutralizing media (Modified Letheen Broth+Tween+Lecithin (MLBTL)) is added to the coverslip and shaken on an orbital shaker for 5 minutes to ensure proper neutralization and extraction. Viability is then assessed of the neutralized and extracted sample by traditional/alternative microbiological techniques. The normalized antimicrobial activity reported in the performance examples below was generated from detection time data obtained as described in the Surface Antimicrobial Kill Test Method. To account for day-to-day variability an internal standard was tested with each series. The internal standard was a composition of 0.25 wt % Triclosan, Sigma Aldrich (St. Louis, MO, USA; CAS #3380-34-5, 97.0-103.0% (active substance, GC)), 50 wt % DMSO, and 49.75 wt % H2O, with a final solution pH of 7.7. Normalized activity is reported following the equation 1 below. Normalized Activity=(αΔDT−βΔDT)/(γΔDT−βΔDT) equation 1. where, αΔDT is the average detection time of the antimicrobial compound, and γΔDT is the average detection time of the reference triclosan internal standard, and βΔDT is the average detection time of the background unperturbed bacteria. Modified amino acids of the present disclosure were tested as aqueous solutions in the Surface Antimicrobial Kill Testing Method above. To prepare test solutions modified amino acids were first dissolved in the appropriate solvent. Second the selected surfactant is added to the mixture. After vortex (1 min, Vortex-2 Genie, vortex speed 8) mixing, the samples were then diluted with ½ portion of reverse osmosis water (RO water, Millipore Direct-Q™, pH 6). The aqueous solution was then vortexed (1 min, Vortex-2 Genie, vortex speed 8), to which the second ½ portion of water is added. The pH of the solution was then adjusted to the target pH using either 1N HCl, Glacial Acetic Acid, or 1N NaOH. The final solution was then vortexed (1 min, Vortex-2 Genie, vortex speed 8). An example batch sheet is provided below in Table 1. In Performance Examples 1-5 below, formulations comprising solvent, surfactant, and antimicrobial agents according to the present disclosure (e.g., based on modified amino acid amides), are evaluated via microbial surface kill tests according to the Surface Antimicrobial Kill Testing Method provided above. After treatment, microbial growth is referenced and reported to a triclosan sample and unaltered microbes according to the Normalization of Antimicrobial Activity provided above.

[2] = test system: Gram Positive bacteria; assay: Surface Antimicrobial Kill Testing, normalized to triclosan internal standard, gram positive; assay type: cell-based, S. aureus (Sa); details: for antimicrobial benefit in words, gram-positive: Table 2B formulas
Experimental: as §1

[3] = Table 2B, compound 0.5 wt %, DPGME 5 wt %, Surfonic L24-9 1 wt %, 0.1M Acetic acid buffer pH 4.5
[4] = Table 3B, compound 0.5 wt %, DPGME 5 wt %, Surfonic L24-9 1 wt %, 0.1M Acetic acid buffer pH 4.5
[5] = 0.5 wt %, 5 wt % DPGME, water, pH 4.5, EH6 1 wt %
[6] = 0.5 wt %, 5 wt % DPGME, water, pH 4.5, Miranol Ultra 1 wt %
[7] = 0.5 wt %, 5 wt % DPGME, water, pH 4.5, Plantaren 2000 1 wt %
[8] = 0.5 wt %, 5 wt % DPGME, water, pH 4.5, Surfonic L24-9 1 wt %
[9] = 0.5 wt %, 5 wt % DPGME, water, pH 4.5, Tween 80 1 wt %
[10] = 0.5 wt %, 5 wt % DPGME, water, pH 9, Miranol Ultra 1 wt %
[11] = 0.5 wt %, 5 wt % DPGME, water, pH 9, SLS 1 wt %
[12] = 0.5 wt %, 5 wt % DPGME, water, pH 9, Surfonic L24-9 1 wt %
[13] = Table 4, variety of surfactants

## CN(C)C(=O)[C@H](N)Cc1ccccc1 [Comparative Example C1, reference compound]
[1]
  antimicrobial benefit in words, gram-negative: fail to show any meaningful benefit
[1]; [3]
  Gram Negative Referenced Microbial Activity: 0.2
[2]
  antimicrobial benefit in words, gram-positive: fail to show any meaningful benefit
[2]; [3]
  Gram Positive Referenced Microbial Activity: 0.1

## CCCCCCNC(=O)[C@@H](N)Cc1c[nH]c2ccccc12 [Synthetic Example 1]
[1]; [4]
  Gram Negative Referenced Microbial Activity: 2.2
[2]; [4]
  Gram Positive Referenced Microbial Activity: 0.3

## CCCCCCCCNC(=O)[C@@H](N)Cc1c[nH]c2ccccc12 [Synthetic Example 2]
[1]; [5]
  Gram Negative Referenced Microbial Activity: ≥4.9
[1]; [6]
  Gram Negative Referenced Microbial Activity: ≥4.9
[1]; [7]
  Gram Negative Referenced Microbial Activity: ≥4.9
[1]; [8]
  Gram Negative Referenced Microbial Activity: 2.5
[1]; [9]
  Gram Negative Referenced Microbial Activity: ≥4.9
[1]; [10]
  Gram Negative Referenced Microbial Activity: 0.1
[1]; [11]
  Gram Negative Referenced Microbial Activity: 0.0
[1]; [12]
  Gram Negative Referenced Microbial Activity: 0.7
[1]; [4]
  Gram Negative Referenced Microbial Activity: 2.5
[1]; Table 4, gram negative and gram positive
  pH cutoff of antimicrobial efficacy: cutoff at pH 9
[1]; [13]
  antimicrobial efficacy in words, gram-negative: shows antimicrobial efficacy
[2]; [5]
  Gram Positive Referenced Microbial Activity: 1.6
[2]; [6]
  Gram Positive Referenced Microbial Activity: 0.7
[2]; [7]
  Gram Positive Referenced Microbial Activity: 1.3
[2]; [8]
  Gram Positive Referenced Microbial Activity: 1.0
[2]; [9]
  Gram Positive Referenced Microbial Activity: 1.2
[2]; [10]
  Gram Positive Referenced Microbial Activity: 0.2
[2]; [11]
  Gram Positive Referenced Microbial Activity: 0.2
[2]; [12]
  Gram Positive Referenced Microbial Activity: 0.2
[2]; [4]
  Gram Positive Referenced Microbial Activity: 1.0
[2]; [13]
  antimicrobial efficacy in words, gram-positive: shows antimicrobial efficacy
[2]; compound 0.5 wt %, Surfonic L 24-9 1 wt %, 5 wt % DPGME, water, pH 4.5, aged 14 days
  Gram Positive Referenced Microbial Activity: 1.1
[2]; compound 0.5 wt %, Surfonic L 24-9 1 wt %, 5 wt % DPGME, water, pH 4.5, not aged
  Gram Positive Referenced Microbial Activity: 1.0

## CCCCCCCCCNC(=O)[C@@H](N)Cc1c[nH]c2ccccc12 [Synthetic Example 3]
[1]; [4]
  Gram Negative Referenced Microbial Activity: 2.2
[2]; [4]
  Gram Positive Referenced Microbial Activity: 0.3

## CCCCCCCCNC(=O)[C@@H](N)Cc1ccccc1 [Synthetic Example 5]
[1]
  antimicrobial benefit in words, gram-negative: demonstrate meaningful gram-negative activity
[1]; [3]
  Gram Negative Referenced Microbial Activity: ≥3.9
[2]
  antimicrobial benefit in words, gram-positive: shows improvement against gram-negative and gram-positive bacteria
[2]; [3]
  Gram Positive Referenced Microbial Activity: 0.7

## CCN(C(=O)C(N)Cc1ccccc1)C1CCCCC1 (stereo not drawn) [Synthetic Example 6]
[1]
  antimicrobial benefit in words, gram-negative: demonstrate meaningful gram-negative activity
[1]; [3]
  Gram Negative Referenced Microbial Activity: 2.7
[2]; [3]
  Gram Positive Referenced Microbial Activity: 0.2

## CCCCCCCCCCCCNC(=O)[C@@H](N)Cc1ccccc1 [Synthetic Example 7]
[1]
  antimicrobial benefit in words, gram-negative: fail to show any meaningful benefit
[1]; [3]
  Gram Negative Referenced Microbial Activity: 0.1
[2]
  antimicrobial benefit in words, gram-positive: fail to show any meaningful benefit
[2]; [3]
  Gram Positive Referenced Microbial Activity: 0.1
